For assay [1], the system named is BCL-XL mRNA. Briefly: RTqPCR, mRNA level of BCL-XL in CLL-B cells. To be noted: CLL-B cells from 12 patients, overnight, 10 µM, 18S housekeeping gene. The assay is classed as cell-based, human. The source says: (§1) Concerning anti-apoptotic protein expression, a decrease in anti-apoptotic proteins BCL-2; BCL-XL and MCL-1 was observed after TAT-Pep treatment of CLL-B cells, possibly as a consequence of the SRC kinase inactivation (Fig. 6A–C). To unveil whether the regulation mechanism behind the observed modifications was transcriptional or post-transcriptional, we evaluated the mRNA levels of all three anti-apoptotic proteins following peptide treatment. […] To further underline that the induction of cell death following TAT-Pep treatment involved apoptosis regulation pathways, we used B cells from six CLL patients and stained them with Annexin V in both TAT-Pep treated and untreated conditions. […]
(§2) Figure 6 The peptide lowers anti-apoptotic proteins levels. […] CLL-B cells from 12 patients were incubated overnight, with or without 10 µM of TAT-Pep, subsequently RNA was extracted from cell lysates and mRNA levels of BCL-2 (D); BCL-XL (E) and MCL-1 (F) were evaluated using RTqPCR; 18S was used as a housekeeping gene. (G) Increased concentrations (0 to 30 µM) of TAT-Pep were incubated with 20,000 CLL-B, and the number of Annexin V-positive cells was measured using the Incucyte live-cell imaging device. Fluorescence was monitored for 48 h. […] The ‘Green Object Count/Phase Object Count’ ratio was determined using the Incucyte analysis software to obtain the percentage of apoptotic cells. […]
For orientation: Real-time PCR tracks product formation cycle by cycle.

The test system of assay [2] is all tyrosine-phosphorylated proteins. The assay can be described thus: Immunoblot, relative phosphorylation level of all tyrosine-phosphorylated proteins in CLL-B cells. Type of assay: cell-based, human. To be noted: CLL-B cells from 10 patients, overnight, 10 µM. The protocol:
(§3) Figure 5 The peptide inhibits kinase phosphorylation. CLL-B cells from 10 patients were incubated overnight, with or without 10 µM of TAT-Pep. Whole cell lysates were then prepared, and 10 µg of proteins were immunoblotted to assess the following parameters. (A) Relative phosphorylation level of SRC. (B) Relative phosphorylation level of AKT. (C) Relative phosphorylation level of LYN. (D) Relative phosphorylation level of BTK. (E) Relative phosphorylation level of all tyrosine-phosphorylated proteins.
(§4) Whole cell lysate proteins were extracted using RIPA buffer (Sigma-Aldrich) and sonication (VibraCell™). Plasma membrane proteins were recovered by using the Plasma Membrane Protein Extraction Kit (Abcam) according to the manufacturer’s instructions. A list of the antibodies used for immunoblotting is available in Supplementary Table 2. Bands were quantitatively assessed by densitometry using Fiji software. To evaluate the level of interaction of NTSR2 and TRKB we normalized the density of the TRKB bands by the density of the NTSR2 bands to obtain the relative amount of TRKB co-precipitated through NTSR2.
(A western blot detects proteins with antibodies after separation by electrophoresis.)

For assay [3], the system named is LYN. Briefly: Immunoblot, relative phosphorylation level of LYN in CLL-B cells. The assay is classed as cell-based, human. To be noted: CLL-B cells from 10 patients, overnight, 10 µM. The method, then:
as §3, §4

The subject of assay [4] is BCL-2. The assay can be described thus: Immunoblot, relative level of anti-apoptotic protein BCL-2 in CLL-B cells. Type of assay: cell-based, human. To be noted: CLL-B cells from 10 patients, overnight, 10 µM.
Source text: as §1, §2

In assay [5] the test system is SRC. Briefly: Immunoblot, relative phosphorylation level of SRC in CLL-B cells. The assay is classed as cell-based, human. To be noted: CLL-B cells from 10 patients, overnight, 10 µM. The method, then:
as §3, §4

In assay [6] the test system is MEC-1 cell line. Briefly: Cytotoxicity on the MEC-1 cell line (Incucyte, Cytotox Dye). To be noted: 0 to 100 µM peptide, fluorescence monitored for 24 h, read-out: IC50, cell death. Type of assay: cell-based. The protocol:
The cytotoxicity of the peptides was initially assessed on the MEC-1 cell line to determine their IC50.
Figure 3 Cytotoxicity of the peptide in vitro and ex vivo. (A) Determination of the cytotoxicity of Pep and TAT-Pep peptides on the MEC-1 cell line. Increased concentrations (0 to 100 µM) of Pep and TAT-Pep were incubated with the MEC-1 cell line, and the number of dead cells was measured using the Incucyte live-cell imaging device with Cytotox Dye (green). Fluorescence was monitored for 24 h. (B) Measurement of the cytotoxicity of the TAT-Pep peptide on CLL-B cells from patients. Increased concentrations (0 to 30 µM) of TAT-Pep were incubated with CLL-B cells, and the number of dead cells was measured using the Incucyte live-cell imaging device with Cytotox Dye (green). Fluorescence was monitored for 48 h. […] In all analyses, the ‘Green Object Count/Phase Object Count’ ratio was determined using the Incucyte analysis software to obtain the percentage of dead cells. The area under the curve for each condition was then calculated, and they were compared using a t-test. […]
Cell viability and survival were monitored using the IncucyteS3 system (Sartorius), a live-cell imaging device enabling the tracking of fluorescence over set periods of time[41],[42]. […] The area under the curve for each condition was then calculated, and they were compared using a t-test. […]

pIC50: −log10 of the molar value.

As usually defined, the pIC50 is the IC50 on a negative log10 scale, so that one unit is a factor of ten.

As to “GRKKRRQRRRPPQNAVSSSFRKLFLEAVSSLCGEHHPMKRLPPKPQSPTLMDTASGFGDPPETRT [TAT-Pep]”, in assay [1], the “mRNA level of BCL-XL (in words)” value is reported as “significantly lowered expression”. Besides, in assay [2], the “global level of tyrosine phosphorylation (in words)” value is listed as “general decrease in tyrosine phosphorylation”. The “LYN phosphorylation (in words)” value in assay [3] is recorded as “significant decrease in phosphorylation”. The “level of anti-apoptotic protein BCL-2 (in words)” value in assay [4] was “decrease”. Moreover, the “amount of phosphorylated SRC (in words)” value in assay [5] is “significant decrease”. The pIC50 in assay [6] is 5.00.

(Values after PMC10937676, “Targeting the NTSR2/TrkB oncogenic pathway in chronic lymphocytic leukemia” (Scientific Reports, 2024).)
